Experimental data as given in ChEMBL document CHEMBL1240316, “An oxidation-sensing mechanism is used by the global regulator MgrA in Staphylococcus aureus” (2006).
Values after ≈ are worked out from the molar mass of the structure shown. Active and inactive are the calls of the source. No cut-off for these calls is given here.

Key:
Staphylococcus aureus [1] = assay: Antimicrobial activity against Staphylococcus aureus expressing mgrA C12S mutant gene; format: functional
Staphylococcus aureus [2] = assay: Antimicrobial activity against Staphylococcus aureus expressing mgrA C12S mutant gene harboring Pyj335-His-mgrA C12S assessed as highest concentration at which growth was visible after 24 hrs in presence of 20 uM paraquat; format: functional
Staphylococcus aureus [3] = assay: Antimicrobial activity against Staphylococcus aureus assessed as highest concentration at which growth was visible after 24 hrs in presence of 20 uM paraquat; format: functional
Staphylococcus aureus [4] = assay: Antimicrobial activity against Staphylococcus aureus expressing mgrA C12S mutant gene harboring pYJ335 assessed as highest concentration at which growth was visible after 24 hrs in presence of 20 uM paraquat; format: functional
Staphylococcus aureus [5] = assay: Antimicrobial activity against Staphylococcus aureus expressing mgrAC12S mutant gene assessed as highest concentration at which growth was visible after 24 hrs; format: functional
Staphylococcus aureus [6] = assay: Antimicrobial activity against Staphylococcus aureus expressing mgrA C12S mutant gene harboring plasmid Pyj335-His-mgrA assessed as visible growth at 0.45 ug/ml after 24 hrs in presence of 20 uM paraquat; format: functional, organism-based
Staphylococcus aureus [7] = assay: Antimicrobial activity against Staphylococcus aureus expressing mgrAC12S mutant gene harboring plasmid Pyj335-His-mgrA C12S assessed as highest concentration at which growth was visible after 24 hrs in presence of 20 uM paraquat; format: functional
Staphylococcus aureus [8] = assay: Antimicrobial activity against Staphylococcus aureus assessed as visible growth at 0.65 ug/ml after 24 hrs; format: functional, organism-based
Staphylococcus aureus [9] = assay: Antimicrobial activity against Staphylococcus aureus expressing mgrA C12S mutant gene harboring plasmid Pyj335 assessed as visible growth at 0.20 ug/ml after 24 hrs in presence of 100 uM hydrogen peroxide; format: functional, organism-based
Staphylococcus aureus [10] = assay: Antimicrobial activity against Staphylococcus aureus assessed as highest concentration at which growth was visible after 24 hrs; format: functional
Staphylococcus aureus [11] = assay: Antimicrobial activity against Staphylococcus aureus expressing mgrA C12S mutant gene harboring pYJ335-His-mgrA C12S assessed as highest concentration at which growth was visible after 24 hrs; format: functional
Staphylococcus aureus [12] = assay: Antimicrobial activity against Staphylococcus aureus expressing mgrA C12S mutant gene harboring plasmid Pyj335 assessed as visible growth at 0.45 ug/ml after 24 hrs; format: functional, organism-based
Staphylococcus aureus [13] = assay: Antimicrobial activity against Staphylococcus aureus expressing mgrA C12S mutant gene assessed as visible growth at 0.25 ug/ml after 24 hrs; format: functional, organism-based
Staphylococcus aureus [14] = assay: Antimicrobial activity against Staphylococcus aureus expressing mgrA C12S mutant gene harboring Pyj335-His-mgrAC12S assessed as visible growth at 0.20 ug/ml after 24 hrs in presence of 25 uM paraquat; format: functional, organism-based
Staphylococcus aureus [15] = assay: Antimicrobial activity against Staphylococcus aureus expressing mgrAC12S mutant gene assessed as highest concentration at which growth was visible after 24 hrs in presence of 20 uM paraquat; format: functional
Staphylococcus aureus [16] = assay: Antimicrobial activity against Staphylococcus aureus expressing mgrA C12S mutant gene assessed as visible growth at 0.55 ug/ml after 24 hrs in presence of 20 uM paraquat; format: functional, organism-based
Staphylococcus aureus [17] = assay: Antimicrobial activity against Staphylococcus aureus expressing mgrA C12S mutant gene harboring Pyj335-His-mgrA assessed as visible growth at 0.20 ug/ml after 24 hrs; format: functional, organism-based
Staphylococcus aureus [18] = assay: Antimicrobial activity against Staphylococcus aureus expressing mgrA C12S mutant gene harboring plasmid Pyj335 assessed as highest concentration at which growth was visible after 24 hrs; format: functional
Staphylococcus aureus [19] = assay: Antimicrobial activity against Staphylococcus aureus; format: functional
Staphylococcus aureus [20] = assay: Antimicrobial activity against Staphylococcus aureus expressing mgrA C12S mutant gene assessed as visible growth at 0.25 ug/ml after 24 hrs in presence of 20 uM paraquat; format: functional, organism-based
Staphylococcus aureus [21] = assay: Antimicrobial activity against Staphylococcus aureus expressing mgrA C12S mutant gene harboring Pyj335-His-mgrA assessed as visible growth at 0.65 ug/ml after 24 hrs; format: functional, organism-based
Staphylococcus aureus [22] = assay: Antimicrobial activity against Staphylococcus aureus expressing mgrA C12S mutant gene harboring Pyj335-His-mgrA assessed as visible growth at 0.45 ug/ml after 24 hrs; format: functional, organism-based
Staphylococcus aureus [23] = assay: Antimicrobial activity against Staphylococcus aureus expressing mgrA C12S mutant gene harboring plasmid Pyj335 assessed as visible growth at 2.6 ug/ml after 24 hrs; format: functional, organism-based
Staphylococcus aureus [24] = assay: Antimicrobial activity against Staphylococcus aureus expressing mgrA C12S mutant gene harboring plasmid Pyj335 assessed as visible growth at 0.6 ug/ml after 24 hrs in presence of 20 uM paraquat; format: functional, organism-based
Staphylococcus aureus [25] = assay: Antimicrobial activity against Staphylococcus aureus expressing mgrA C12S mutant gene harboring Pyj335-His-mgrA assessed as visible growth at 2.6 ug/ml after 24 hrs; format: functional, organism-based
Staphylococcus aureus [26] = assay: Antimicrobial activity against Staphylococcus aureus assessed as visible growth at 0.6 ug/ml after 24 hrs; format: functional, organism-based
Staphylococcus aureus [27] = assay: Antimicrobial activity against Staphylococcus aureus assessed as visible growth at 2.6 ug/ml after 24 hrs in presence of 20 uM paraquat; format: functional, organism-based
Staphylococcus aureus [28] = assay: Antimicrobial activity against Staphylococcus aureus assessed as visible growth at 2.6 ug/ml after 24 hrs; format: functional, organism-based
Staphylococcus aureus [29] = assay: Antimicrobial activity against Staphylococcus aureus assessed as visible growth at 0.6 ug/ml after 24 hrs in presence of 20 uM paraquat; format: functional, organism-based
Staphylococcus aureus [30] = assay: Antimicrobial activity against Staphylococcus aureus expressing mgrA C12S mutant gene assessed as visible growth at 1 ug/ml after 24 hrs in presence of 20 uM paraquat; format: functional, organism-based
Staphylococcus aureus [31] = assay: Antimicrobial activity against Staphylococcus aureus expressing mgrA C12S mutant gene harboring plasmid Pyj335 assessed as visible growth at 1.4 ug/ml after 24 hrs in presence of 20 uM paraquat; format: functional, organism-based
Staphylococcus aureus [32] = assay: Antimicrobial activity against Staphylococcus aureus expressing mgrA C12S mutant gene harboring Pyj335-His-mgrA assessed as visible growth at 1.8 ug/ml after 24 hrs; format: functional, organism-based
Staphylococcus aureus [33] = assay: Antimicrobial activity against Staphylococcus aureus expressing mgrA C12S mutant gene assessed as visible growth at 2.6 ug/ml after 24 hrs in presence of 20 uM paraquat; format: functional, organism-based
Staphylococcus aureus [34] = assay: Antimicrobial activity against Staphylococcus aureus expressing mgrA C12S mutant gene harboring plasmid Pyj335 assessed as visible growth at 1 ug/ml after 24 hrs; format: functional, organism-based
Staphylococcus aureus [35] = assay: Antimicrobial activity against Staphylococcus aureus expressing mgrA C12S mutant gene assessed as visible growth at 1.4 ug/ml after 24 hrs; format: functional, organism-based
Staphylococcus aureus [36] = assay: Antimicrobial activity against Staphylococcus aureus expressing mgrA C12S mutant gene assessed as visible growth at 1.1 ug/ml after 24 hrs in presence of 25 uM paraquat; format: functional, organism-based
Staphylococcus aureus [37] = assay: Antimicrobial activity against Staphylococcus aureus expressing mgrA C12S mutant gene harboring plasmid Pyj335 assessed as visible growth at 1.8 ug/ml after 24 hrs in presence of 20 uM paraquat; format: functional, organism-based
Staphylococcus aureus [38] = assay: Antimicrobial activity against Staphylococcus aureus expressing mgrA C12S mutant gene harboring Pyj335-His-mgrA assessed as visible growth at 0.6 ug/ml after 24 hrs; format: functional, organism-based
Staphylococcus aureus [39] = assay: Antimicrobial activity against Staphylococcus aureus assessed as visible growth at 1.4 ug/ml after 24 hrs; format: functional, organism-based
Staphylococcus aureus [40] = assay: Antimicrobial activity against Staphylococcus aureus expressing mgrA C12S mutant gene assessed as visible growth at 2.6 ug/ml after 24 hrs; format: functional, organism-based
Staphylococcus aureus [41] = assay: Antimicrobial activity against Staphylococcus aureus expressing mgrA C12S mutant gene assessed as visible growth at 2.2 ug/ml after 24 hrs in presence of 20 uM paraquat; format: functional, organism-based

O=C(O)c1cn(C2CC2)c2cc(N3CCNCC3)c(F)cc2c1=O [CIPROFLOXACIN]
MIC (Staphylococcus aureus [1]): 0.7 µg/mL (≈ 2.11 µM)
Activity (Staphylococcus aureus [2]): 0.35 µg/mL
Activity (Staphylococcus aureus [3]): 0.45 µg/mL
Activity (Staphylococcus aureus [4]): 0.65 µg/mL
Activity (Staphylococcus aureus [5]): 0.65 µg/mL
Activity (Staphylococcus aureus [6]): inactive
Activity (Staphylococcus aureus [7]): 0.55 µg/mL
Activity (Staphylococcus aureus [8]): Active
Activity (Staphylococcus aureus [9]): inactive
Activity (Staphylococcus aureus [10]): 0.25 µg/mL
Activity (Staphylococcus aureus [11]): 0.35 µg/mL
Activity (Staphylococcus aureus [12]): inactive
Activity (Staphylococcus aureus [13]): inactive
Activity (Staphylococcus aureus [14]): Active
Activity (Staphylococcus aureus [15]): 0.65 µg/mL
Activity (Staphylococcus aureus [16]): inactive
Activity (Staphylococcus aureus [17]): Active
Activity (Staphylococcus aureus [18]): 0.65 µg/mL
MIC (Staphylococcus aureus [19]): 0.35 µg/mL (≈ 1.06 µM)
Activity (Staphylococcus aureus [20]): inactive
Activity (Staphylococcus aureus [21]): Active
Activity (Staphylococcus aureus [22]): Active

CN[C@H](CC(C)C)C(=O)N[C@H]1C(=O)N[C@@H](CC(N)=O)C(=O)N[C@H]2C(=O)N[C@H]3C(=O)N[C@H](C(=O)N[C@H](C(=O)O)c4cc(O)cc(O)c4-c4cc3ccc4O)[C@H](O)c3ccc(c(Cl)c3)Oc3cc2cc(c3O[C@@H]2O[C@H](CO)[C@@H](O)[C@H](O)[C@H]2O[C@H]2C[C@](C)(N)[C@H](O)[C@H](C)O2)Oc2ccc(cc2Cl)[C@H]1O [VANCOMYCIN]
MIC (Staphylococcus aureus [1]): 2.4 µg/mL (≈ 1.66 µM)
Activity (Staphylococcus aureus [2]): 1.4 µg/mL
Activity (Staphylococcus aureus [3]): 1.4 µg/mL
Activity (Staphylococcus aureus [4]): 2.2 µg/mL
Activity (Staphylococcus aureus [23]): Active
Activity (Staphylococcus aureus [24]): inactive
Activity (Staphylococcus aureus [5]): 2.2 µg/mL
Activity (Staphylococcus aureus [25]): Active
Activity (Staphylococcus aureus [26]): inactive
Activity (Staphylococcus aureus [27]): Active
Activity (Staphylococcus aureus [7]): 1.8 µg/mL
Activity (Staphylococcus aureus [28]): Active
Activity (Staphylococcus aureus [29]): inactive
Activity (Staphylococcus aureus [30]): inactive
Activity (Staphylococcus aureus [31]): inactive
Activity (Staphylococcus aureus [10]): 1 µg/mL
Activity (Staphylococcus aureus [11]): 1.4 µg/mL
Activity (Staphylococcus aureus [32]): Active
Activity (Staphylococcus aureus [33]): Active
Activity (Staphylococcus aureus [34]): inactive
Activity (Staphylococcus aureus [15]): 2.2 µg/mL
Activity (Staphylococcus aureus [35]): inactive
Activity (Staphylococcus aureus [36]): inactive
Activity (Staphylococcus aureus [37]): inactive
Activity (Staphylococcus aureus [38]): inactive
Activity (Staphylococcus aureus [18]): 2.2 µg/mL
Activity (Staphylococcus aureus [39]): Active
MIC (Staphylococcus aureus [19]): 1.2 µg/mL (≈ 0.828 µM)
Activity (Staphylococcus aureus [40]): Active
Activity (Staphylococcus aureus [41]): inactive
